Data from patent publication US8895502B2, “β2-glycoprotein I peptide inhibitors” (Kansas State University Research Foundation, priority 2010, dated 2014).
Square brackets hold non-standard residues; d marks the D form.

Assays:
C57Bl/6 mice [1] = test: Intestinal ischemia/reperfusion, mucosal injury score; type: in vivo, mouse; details: C57Bl/6 mice, peptide 40 μM i.v. 5 min prior to ischemia, 2 hours reperfusion
Description: (§1) C57Bl/6 and Rag-1^−/− mice were subjected to ischemia followed by reperfusion similar to previously described studies (Moses, T. et al., J. Leukoc. Biol. 86:971-980 (2009)). Briefly, ketamine (16 mg/kg) and xylazine (80 mg/kg) were used to anesthetize the mice. Buprenorphine (0.06 mg/kg) was then administered for pain. A midline laparotomy was performed to expose the abdominal cavity of the mice, which were then allowed to equilibrate for 30 min. Body temperature was maintained at 37° C. using a water-circulating heat pad. Placing a warm, saline moistened piece of gauze over the abdominal cavity prevented peritoneal desiccation. […] Ischemia was noted by the intestine changing from a pink color to a gray color. After 30 min of ischemia, the clamp was removed and the intestines were allowed to reperfuse for 5, 10, 15, or 120 min. […] Mice treated with the various β2-GPI peptides underwent the same procedure with i.v. administration of the peptides (40 μM) 5 min prior to artery occlusion. Peptides 296, 305, and 296Cys to Ser were dissolved in N. Saline (0.9% NaCl) and injected i.v. in 100-μL volumes. Peptides 100 and 181 were dissolved in DMSO prior to diluting 1/100 in N. Saline. Additional mice received peptides prior to Sham treatment.
Immediately after euthanasia, a 2-cm mid jejunum tissue section was immediately fixed in 10% buffered formalin, embedded in paraffin, and 8 μm sections were cut transversely and hematoxylin and eosin (H&E) stained. Mucosal injury was graded on a six-tiered scale, as described previously (Fleming, S. D. et al., J. Immunol. 169:2126-2133 (2002)). Briefly, the average damage score of the intestinal section (75-150 villi) was determined after grading each villus. […] Photomicrographs were obtained from H&E stained slides using a 20×, 0.5 Plan Fluor objective on a Nikon 80i microscope and images acquired at room temperature using a Nikon DS-5M camera with DS-L2 software.
Ischemia/reperfusion was performed on ketamine/xylazine anesthetized mice as described in Example 1 above. After 2 hours of reperfusion, the mice were euthanized and sera, liver, spleen, and 2 cm sections of the small intestine, approximately 10 cm distal to the gastroduodenal junction, were collected for histological and other analyses. Mice treated with the various β2-GPI peptides underwent the same procedure with i.v. administration of the peptides. Most studies assumed 2 mL total blood volume in a mouse and administered peptides to a final concentration of 40 μM at 5 min prior to ischemia. Dose response studies administered 1-40 μM peptide at 5 min prior to ischemia and time course studies administered 40 μM peptide at 5 min prior to ischemia, and at 15-, 30- or 60-min post-ischemia (i.e., during reperfusion).
After euthanasia, tissue sections were fixed and stained following the procedures outlined in Example 1. Mucosal injury (SMI) was also graded on a six-tiered scale, as described in Example 1.

C3 = test: Intestinal IR, C3 deposition immunohistochemistry; type: in vivo, mouse; details: C57Bl/6 mice, peptide infused prior to IR
Description: as §1
After euthanasia, an additional 2-cm intestinal section from each mouse was immediately snap frozen in O.C.T. freezing medium and 8 μm sections were placed on slides for immunohistochemistry. The C3 deposition and F4/80 expression on the tissue sections were detected by staining with a purified rat-anti-mouse C3 (Hycult Biotechnologies; Plymouth Meeting, Pa.) or F4/80 (eBioscience; San Diego, Calif.) antibody followed by a Texas-red conjugated donkey-anti-rat IgG secondary antibody (Jackson Immunoresearch). CD31 (PECAM-1) and CD106 (VCAM-1) were detected by FITC conjugated rat anti-mouse CD31 or CD106 (Biolegend; San Diego, Calif.) antibodies. Each experiment contained serial sections stained with the appropriate isotype control antibodies. All slides were mounted with ProLong Gold (Invitrogen). Images were obtained at room temperature using a Nikon Eclipse 80i microscope equipped with a CoolSnap CF camera (Photometrics) and analyzed using Metavue software (Molecular Devices). The fluorescence was semi-quantitated using Image J software (NIH) using the fluorescent area fraction after setting threshold for each experiment. The average of the isotype control was subtracted from each photo.

PGE2 = test: Intestinal IR, ex vivo PGE2 generation; type: in vivo, mouse; details: C57Bl/6 mice, peptide 40 μM prior to IR
Description: C57Bl/6 and Rag-1^−/− mice were subjected to ischemia followed by reperfusion similar to previously described studies (Moses, T. et al., J. Leukoc. Biol. 86:971-980 (2009)). Briefly, ketamine (16 mg/kg) and xylazine (80 mg/kg) were used to anesthetize the mice. Buprenorphine (0.06 mg/kg) was then administered for pain. A midline laparotomy was performed to expose the abdominal cavity of the mice, which were then allowed to equilibrate for 30 min. Body temperature was maintained at 37° C. using a water-circulating heat pad. Placing a warm, saline moistened piece of gauze over the abdominal cavity prevented peritoneal desiccation. […] Ischemia was noted by the intestine changing from a pink color to a gray color. After 30 min of ischemia, the clamp was removed and the intestines were allowed to reperfuse for 5, 10, 15, or 120 min. […] Peptides 296, 305, and 296Cys to Ser were dissolved in N. Saline (0.9% NaCl) and injected i.v. in 100-μL volumes. Peptides 100 and 181 were dissolved in DMSO prior to diluting 1/100 in N. Saline. Additional mice received peptides prior to Sham treatment.
(§2) Ex vivo generation of eicosanoids by mid-jejunal tissue was determined. Immediately after collection, a 2-cm intestinal section from each mouse was minced, washed, resuspended in 37° C. oxygenated Tyrode's buffer (Sigma-Aldrich; St. Louis, Mo.), incubated at 37° C. for 20 minutes, and the supernatant collected. PGE2 and LTB4 concentrations were determined using enzyme immunoassay kits (Cayman Chemical; Ann Arbor, Mich.). IL-6 and IL-12 concentrations were determined using a Milliplex MAP immunoassay kit (Millipore) and read on a Milliplex Analyzer (Millipore). All eicosanoid and cytokine concentrations were standardized to the total tissue protein content.
(§3) Total peroxidase, LTB4, PGE2, IL-6, IL-12p40, and IL-12p70 concentrations were determined using the procedures described in Example 1.

LTB4 = test: Intestinal IR, ex vivo LTB4 generation; type: in vivo, mouse; details: C57Bl/6 mice, peptide 40 μM prior to IR
Description: as §1, §2, §3

[2] = tested on: thioglycollate-elicited macrophages, nitric oxide; test: β2-GPI stimulated macrophage nitric oxide production; type: cell-based; details: mouse β2-GPI 10 μg/mL, peptide 40 μM, 18 hours
Description: C57Bl/6 mice were injected i.p. with 1 mL thioglycollate (4%) 4 days prior to peritoneal lavage. Peritoneal exudate macrophages or the B cell line, LK35.2, were seeded at 2×10^6 cells/mL in 24-well or 96-well plates. After macrophage adherence, both cell types were treated with mouse β2-GPI (10 μg/mL) with or without peptide (40 μM). Additional cells were unstimulated as a negative control or stimulated with 10 μg/mL LPS (E. coli 055B5) as a positive control. Supernatants were collected 18-20 hours after stimulation and analyzed for nitrite by Griess reagent (Hoffman & Fleming, Cell Biochem. Funct. 28:686-694 (2010)) or IL-6 by Milliplex MAP kit (Millipore) following the manufacturer's instructions using a Luminex 200 with xPONENT 3.1 and Analyst software (Millipore).

C57Bl/6 mice [3] = test: Intestinal ischemia/reperfusion, mucosal injury score; type: in vivo, mouse; details: Example 3, human β2-GPI in N. saline at 0.5-μg, 1-μg and 5-μg

Molecule | IR-induced intestinal mucosal damage (injury score) (C57Bl/6 mice [1]) | C3 deposition / complement activation after IR (C3) | IR-induced intestinal PGE2 production (PGE2) | IR-induced intestinal LTB4 production (LTB4) | β2-GPI-induced nitric oxide production [2] | IR-induced intestinal injury (C57Bl/6 mice [3])
H-GNDTVMCTEQQN-NH2 [peptide 181, 17, reference compound] | IR-induced intestinal damage similar to untreated mice | – | – | – | – | –
H-SHAEVTYSS-OH (H-[dS][dH][dA][dE][dV][dT][dY][dS][dS]-OH; also: retro-inverso) [peptide Retro-inverso D-p9, 13] | attenuated | few to no C3 deposits | attenuated | attenuated | – | –
H-SKNKEKK-NH2 [peptide p7, 11] | attenuate actual epithelial injury more effectively | – | returned PGE2 concentrations to those found in Sham treated animals | – | – | –
H-SSYTVEAHS-NH2 [peptide p9, 12] | attenuated | significantly less deposition | attenuated | attenuated | significantly attenuated | –
H-SSYTVEAHS-OH (H-[dS][dS][dY][dT][dV][dE][dA][dH][dS]-OH; SMILES CC(C)[C@@H](NC(=O)[C@H](NC(=O)[C@@H](Cc1ccc(O)cc1)NC(=O)[C@@H](CO)NC(=O)[C@H](N)CO)[C@H](C)O)C(=O)N[C@H](CCC(=O)O)C(=O)N[C@H](C)C(=O)N[C@H](Cc1c[nH]cn1)C(=O)N[C@H](CO)C(=O)O) [peptide D-p9, p9 synthesized with D-amino acids] | attenuated | – | attenuated | did not | – | –
human β2-GPI: commercially-available human β2-GPI (SEQ ID NO. 15), whole molecule (protein, listed as Homo sapiens) MISPVLILFSSFLCHVAIAGRTCPKPDDLPFSTVVPLKTFYEPGEEITYSCKPGYVSRGGMRKFICPLTGLWPINTLKCTPRVCPFAGILENGAVRYTTFEYPNTISFSCNTGFYLNGADSAKCTEEGKWSPELPVCAPIICPPPSIPTFATLRVYKPSAGNNSLYRDTAVFECLPQHAMFGNDTITCTTHGNWTKLPECREVKCPFPSRPDNGFVNYPAKPTLYYKDKATFGCHDGYSLDGPEEIECTKLGNWSAMPSCKASCKVPVKKATVVYQGERVKIQEKFKNGMLHGDKVSFFCKNKEKKCSYTEDAQCIDGTIEVPKCFKEHSSLAFWKTDASDVKPC | – | – | – | – | – | effective at attenuating
